{"source": "patent US20200390101A1", "about": "“MICROBICIDAL COMPOSITION” (DOW GLOBAL TECHNOLOGIES LLC, priority 2017, published 2020)", "system": "anaerobic sulfate-reducing bacteria", "assay": "Sulfide control efficacy against anaerobic sulfate-reducing bacteria (colorimetric sulfide measurement after 2 days at 35° C.)", "assay_type": "cell-based", "conditions": "for Sulfide (ppm): sulfide level at the listed THPS/nitrate concentrations after 2 days at 35° C.", "procedure": "Inside an anaerobic chamber (Bactron anaerobic chamber), a deoxygenated sterile salt solution (3.12 g of NaCl, 0.13 g of NaHCO3, 0.17 g of Na2SO4, 47.70 mg of KC1, 72.00 mg of CaCl2, 54.49 mg of MgSO4, 43.92 mg of Na2CO3 in 1 L water and then enriched with 5% of ATCC 1249 Modified Baar's Medium) was inoculated with a sulfate-reducing bacteria which has a high similarity in 16S rRNA gene sequence with Desulfovibrio alaskensis and Desulfovibrio vietnamensis, at a final bacterial concentrations of 10^7 CFU/mL. […] After the mixtures were incubated at 35° C. for 2 days, sulfide level in all treatments including non THPS and or nitrate controls were measured using a colorimetric method described by D. Andrew et. al in “Standard Methods for the Examination of Water and Wastewater 4500-S2-”, with a scaled down sample size (250 μl) and reagents (scaled down accordingly) to allow the analysis to be done in 96-well micro-titer plates. Final results were read using a 96-well plate reader (TECAN Sunrise) at wavelength of 580 nm.\nSI is calculated as follows:\nCa/CA+Cb/CB=Synergy Index (“SI”)", "data": [{"molecule": "O=[N+]([O-])[O-].[Na+]", "note": "[THPS:Nitrate 0:1, sodium nitrate]", "values": [{"measurement": "Active ppm concentration required to control sulfide below 10 ppm, Nitrate", "setting": "nitrate component (sodium nitrate), 10^7 CFU/mL, 35° C., 2 days, anaerobic", "result": ">800", "unit": "ppm"}, {"measurement": "Sulfide (ppm)", "result": 74.26, "unit": "ppm"}]}, {"molecule": "tetrakis(hydroxymethyl) phosphonium sulfate [THPS:Nitrate 1:0]", "values": [{"measurement": "Active ppm concentration required to control sulfide below 10 ppm, THPS", "setting": "THPS component, 10^7 CFU/mL, 35° C., 2 days, anaerobic", "result": 12.50, "unit": "ppm"}, {"measurement": "Sulfide (ppm)", "result": 2.48, "unit": "ppm"}]}]}
